Test results from publication PMC7461649 (Journal of medicinal chemistry, 2020).
Where two headings read alike, the source gives them in different places.

Assays:
TnmH [1] = target: T1, TnmH (Streptomyces sp. CB03234, UniProt A0A125SA05); assay: biochemical
TnmH [2] = target: T1, TnmH; details: saturating SAM (1 mM)
[3] = target: TnmH (Streptomyces sp. CB03234); assay: SEC

With `C[S+](CC[C@H](N)C(=O)O)C[C@H]1O[C@@H](n2cnc3c(N)ncnc32)[C@H](O)[C@@H]1O` (stereo partly shown) [SAM] the Km (TnmH [1]) was 62 ± 4.8 µM.

`COC(=O)C(O)C(C)(O)[C@@]12OC13c1cc(O)c4c(c1N[C@H]2C#C/C=C\C#C[C@H]3O)C(=O)c1c(ccc(O)c1O)C4=O` (stereo partly shown) [compound 11, TNM C] was tested, and the Km (TnmH [2]; 11 varied 7.8 to 500 μM, C-7 hydroxyl methylation to 13) was 31.1 ± 4.1 µM.

TNM F [compound 10] showed a Km (TnmH [2]; 10 varied 7.8 to 500 μM, C-7 hydroxyl methylation to 12) of 11.7 ± 1.2 µM.

Compound TnmH (enzyme) has a stoichiometry N [3] of 2.
